# Source: PubChem BioAssay AID330 (DTP/NCI, 2004)
# Several values for one entry are separate records, joined by “and”; a condition that tells them apart may be missing. Equal entries are not always repeated. Inconclusive results and toxic doses are left out.
# Tested on: P388 leukemia ip, CD2F1 mice, survival T/C
# Assay: NCI In Vivo Anticancer Drug Screen. Data for tumor model P388 Leukemia (intraperitoneal) in CD2F1 (CDF1) mice
# Details: endpoint: median survival time, higher = longer survival
# How it was run: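 Mice carrying the transplanted tumor received test compound or vehicle. Survival was recorded in each group, and the value is the treated-group measurement divided by that of the vehicle-treated control group.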
# [1] = dose: 50.0 mg/kg/injection, schedule: Q01DX009 (ip), vehicle: saline with Tween-80
# [2] = dose: 100.0 mg/kg/injection, schedule: Q01DX009 (ip), vehicle: saline with Tween-80
# [3] = dose: 200.0 mg/kg/injection, schedule: Q01DX009 (ip), vehicle: saline with Tween-80
# [4] = dose: 50.0 mg/kg/injection, schedule: Q01DX005 (ip), vehicle: saline
# [5] = dose: 50.0 mg/kg/injection, schedule: Q01DX005 (ip), vehicle: Klucel (hydroxypropylcellulose) (HPC)
# [6] = dose: 100.0 mg/kg/injection, schedule: Q01DX005 (ip), vehicle: Klucel (hydroxypropylcellulose) (HPC)
# [7] = dose: 200.0 mg/kg/injection, schedule: Q01DX005 (ip), vehicle: Klucel (hydroxypropylcellulose) (HPC)
# [8] = dose: 12.5 mg/kg/injection, schedule: Q01DX005 (ip), vehicle: Klucel (hydroxypropylcellulose) (HPC)
# [9] = dose: 50.0 mg/kg/injection, schedule: Q01DX005 (ip), vehicle: saline with Tween-80
# [10] = dose: 200.0 mg/kg/injection, schedule: Q01DX005 (ip), vehicle: saline with Tween-80
smiles,measurement,setting,value
Cc1cc(NCCCCCCCNc2cc(C)nc3cc(N)ccc23)c2ccc(N)cc2n1,T/C,"dose: 1.56 mg/kg/injection, schedule: Q01DX009 (ip), vehicle: other",165 % of control
same,T/C,"dose: 3.13 mg/kg/injection, schedule: Q01DX009 (ip), vehicle: other",158 % of control
same,T/C,"dose: 6.25 mg/kg/injection, schedule: Q01DX009 (ip), vehicle: other",186 % of control and 196 % of control
same,T/C,"dose: 12.5 mg/kg/injection, schedule: Q01DX009 (ip), vehicle: other",157 % of control and 186 % of control
Cc1ccc(S(=O)(=O)Cc2ccccc2)cc1,T/C,"dose: 50.0 mg/kg/injection, schedule: Q04DX003 (ip), vehicle: other",90 % of control
same,T/C,"dose: 100.0 mg/kg/injection, schedule: Q04DX003 (ip), vehicle: other",95 % of control
same,T/C,"dose: 200.0 mg/kg/injection, schedule: Q04DX003 (ip), vehicle: other",90 % of control
N#Cc1cc2ccncc2c2ccccc12,T/C,"dose: 25.0 mg/kg/injection, schedule: Q01DX009 (ip), vehicle: saline with Tween-80",90 % of control
same,T/C,[1],93 % of control and 95 % of control
same,T/C,[2],98 % of control
same,T/C,[3],106 % of control and 89 % of control
same,T/C,"dose: 400.0 mg/kg/injection, schedule: Q01DX009 (ip), vehicle: saline with Tween-80",114 % of control
CCN(CC)CCOc1ccc(/C=C(\C)C(C)=O)cc1,T/C,[4],94 % of control
same,T/C,"dose: 100.0 mg/kg/injection, schedule: Q01DX005 (ip), vehicle: saline",90 % of control
Cc1nn2c(-c3ccccc3)cnnc2c1-c1ccccc1,T/C,[5],101 % of control
same,T/C,[6],98 % of control
same,T/C,[7],96 % of control
C=C1C(=O)C23C(OC(=O)CCCCCCCCCCC)C1CCC2C12COC3(O)C(O)C1C(C)(C)CCC2O (configuration not stated),T/C,"dose: 3.75 mg/kg/injection, schedule: Q01DX009 (ip), vehicle: saline with Tween-80",98 % of control
same,T/C,"dose: 7.5 mg/kg/injection, schedule: Q01DX009 (ip), vehicle: saline with Tween-80",103 % of control
same,T/C,"dose: 15.0 mg/kg/injection, schedule: Q01DX009 (ip), vehicle: saline with Tween-80",95 % of control
same,T/C,"dose: 30.0 mg/kg/injection, schedule: Q01DX009 (ip), vehicle: saline with Tween-80",100 % of control
Nc1ccc(S(=O)(=O)n2c(=O)oc3ccc(Br)cc32)cc1,T/C,"dose: 100.0 mg/kg/injection, schedule: Q04DX002 (ip), vehicle: Klucel (hydroxypropylcellulose) (HPC)",93 % of control
same,T/C,"dose: 200.0 mg/kg/injection, schedule: Q04DX002 (ip), vehicle: Klucel (hydroxypropylcellulose) (HPC)",90 % of control
same,T/C,"dose: 400.0 mg/kg/injection, schedule: Q04DX002 (ip), vehicle: Klucel (hydroxypropylcellulose) (HPC)",93 % of control
CCCc1cc(=O)[nH]c(Sc2ccc([N+](=O)[O-])cn2)n1,T/C,"dose: 3.12 mg/kg/injection, schedule: Q01DX005 (ip), vehicle: Klucel (hydroxypropylcellulose) (HPC)",101 % of control
same,T/C,"dose: 6.25 mg/kg/injection, schedule: Q01DX005 (ip), vehicle: Klucel (hydroxypropylcellulose) (HPC)",101 % of control
same,T/C,[8],106 % of control
Cn1c(/C=N/N2CCOCC2)cnc1[N+](=O)[O-],T/C,[1],106 % of control
same,T/C,[2],109 % of control
same,T/C,[3],110 % of control
O=C(Nc1ccc(NC(=O)c2ccncc2)cc1)c1ccncc1,T/C,[9],97 % of control
same,T/C,"dose: 100.0 mg/kg/injection, schedule: Q01DX005 (ip), vehicle: saline with Tween-80",93 % of control
same,T/C,[10],97 % of control
COCCOP(=O)(N1CC1)N1CC1,T/C,"dose: 6.25 mg/kg/injection, schedule: Q04DX003 (ip), vehicle: saline",118 % of control
same,T/C,"dose: 25.0 mg/kg/injection, schedule: Q01DX009 (ip), vehicle: saline",181 % of control
same,T/C,"dose: 25.0 mg/kg/injection, schedule: Q04DX003 (ip), vehicle: saline",177 % of control
same,T/C,"dose: 33.0 mg/kg/injection, schedule: Q04DX003 (ip), vehicle: saline",150 % of control
same,T/C,"dose: 50.0 mg/kg/injection, schedule: Q01DX009 (ip), vehicle: saline",122 % of control
same,T/C,"dose: 50.0 mg/kg/injection, schedule: Q04DX003 (ip), vehicle: saline",175 % of control and 190 % of control
same,T/C,"dose: 75.0 mg/kg/injection, schedule: Q04DX003 (ip), vehicle: saline",120 % of control
CCCCCC1=CC2(F)C(=O)NC(=O)NC12 (configuration not stated),T/C,[8],97 % of control
same,T/C,"dose: 25.0 mg/kg/injection, schedule: Q01DX005 (ip), vehicle: Klucel (hydroxypropylcellulose) (HPC)",98 % of control
same,T/C,[5],108 % of control
same,T/C,[6],95 % of control
COC1=C(OC)C(=O)C([Si](C)(C)C)=C(CO)C1=O,T/C,"dose: 7.5 mg/kg/injection, schedule: Q01DX005 (ip), vehicle: saline with Tween-80",103 % of control
same,T/C,"dose: 15.0 mg/kg/injection, schedule: Q01DX005 (ip), vehicle: saline with Tween-80",105 % of control
CC(C)(C)c1cc2c(O)c(c1)Cc1cc(C(C)(C)C)cc(c1O)Cc1cc(C(C)(C)C)cc(c1O)Cc1cc(C(C)(C)C)cc(c1O)Cc1cc(C(C)(C)C)cc(c1O)Cc1cc(C(C)(C)C)cc(c1O)Cc1cc(C(C)(C)C)cc(c1O)Cc1cc(C(C)(C)C)cc(c1O)C2,T/C,[5],101 % of control
same,T/C,[6],90 % of control
same,T/C,[7],99 % of control
CN(C)c1cc(N(C)C)c2cc(Cl)ccc2n1,T/C,"dose: 50.0 mg/kg/injection, schedule: Q01DX009 (ip), vehicle: Klucel (hydroxypropylcellulose) (HPC)",106 % of control
same,T/C,"dose: 100.0 mg/kg/injection, schedule: Q01DX009 (ip), vehicle: Klucel (hydroxypropylcellulose) (HPC)",100 % of control
CCOC(=O)CCN(CCC(=O)OCC)c1ccccn1,T/C,[5],105 % of control
same,T/C,[6],99 % of control
same,T/C,[7],101 % of control
COC(OC)C(Sc1ccccc1-n1cccc1)c1ccccc1 (configuration not stated),T/C,"dose: 60.0 mg/kg/injection, schedule: Q01DX005 (ip), vehicle: saline",105 % of control
same,T/C,"dose: 120.0 mg/kg/injection, schedule: Q01DX005 (ip), vehicle: saline",103 % of control
same,T/C,"dose: 240.0 mg/kg/injection, schedule: Q01DX005 (ip), vehicle: saline",108 % of control
COc1cccc(Oc2ccc(C)c[n+]2CC(C)=O)c1,T/C,"dose: 25.0 mg/kg/injection, schedule: Q01DX005 (ip), vehicle: saline with Tween-80",100 % of control
same,T/C,[9],105 % of control
CC(C)(C)/[N+]([O-])=C/C=C(/C=[N+](\[O-])C(C)(C)C)S(=O)(=O)c1ccccc1,T/C,"dose: 60.0 mg/kg/injection, schedule: Q01DX005 (ip), vehicle: saline with Tween-80",96 % of control
same,T/C,"dose: 120.0 mg/kg/injection, schedule: Q01DX005 (ip), vehicle: saline with Tween-80",90 % of control
same,T/C,"dose: 240.0 mg/kg/injection, schedule: Q01DX005 (ip), vehicle: saline with Tween-80",90 % of control
CC(=O)OC1COC(NC(=O)N(CCCl)N=O)C(OC(C)=O)C1OC(C)=O (configuration not stated),T/C,"dose: 1.5 mg/kg/injection, schedule: Q01DX009 (ip), vehicle: saline with Tween-80",111 % of control
same,T/C,"dose: 3.0 mg/kg/injection, schedule: Q01DX009 (ip), vehicle: saline with Tween-80",121 % of control
same,T/C,"dose: 6.0 mg/kg/injection, schedule: Q01DX009 (ip), vehicle: saline with Tween-80",151 % of control
same,T/C,"dose: 12.0 mg/kg/injection, schedule: Q01DX009 (ip), vehicle: saline with Tween-80",161 % of control
same,T/C,"dose: 24.0 mg/kg/injection, schedule: Q01DX009 (ip), vehicle: saline with Tween-80",272 % of control
same,T/C,"dose: 48.0 mg/kg/injection, schedule: Q01DX009 (ip), vehicle: saline with Tween-80",114 % of control
COC(=O)/C(=C/C=C/c1ccccc1)N=[N+]=[N-],T/C,"dose: 100.0 mg/kg/injection, schedule: Q01DX001 (ip), vehicle: saline with Tween-80",114 % of control
same,T/C,"dose: 200.0 mg/kg/injection, schedule: Q01DX001 (ip), vehicle: saline with Tween-80",105 % of control
same,T/C,"dose: 400.0 mg/kg/injection, schedule: Q01DX001 (ip), vehicle: saline with Tween-80",100 % of control
CCCCCCC(=O)/C=C/c1ccc(O)cc1,T/C,[1],105 % of control
same,T/C,[2],105 % of control
same,T/C,[3],105 % of control
Cc1cc(=NC(C)(C)C)nc2c3ccccc3c(Cl)cn12,T/C,"dose: 1.56 mg/kg/injection, schedule: Q01DX005 (ip), vehicle: saline with Tween-80",100 % of control
same,T/C,"dose: 3.13 mg/kg/injection, schedule: Q01DX005 (ip), vehicle: saline with Tween-80",100 % of control
same,T/C,"dose: 6.25 mg/kg/injection, schedule: Q01DX005 (ip), vehicle: saline with Tween-80",103 % of control and 98 % of control
O=[N+]([O-])c1ccc2c(c1)c(S(=O)(=O)O)cc1nonc12,T/C,"dose: 12.5 mg/kg/injection, schedule: Q01DX005 (ip), vehicle: saline",98 % of control
same,T/C,"dose: 25.0 mg/kg/injection, schedule: Q01DX005 (ip), vehicle: saline",95 % of control
same,T/C,[9],95 % of control
same,T/C,[4],90 % of control
same,T/C,[10],93 % of control
